According to ChEMBL document CHEMBL4393736, “Evaluation of α-hydroxycinnamic acids as pyruvate carboxylase inhibitors” (Bioorg Med Chem, 2019):
Calls of active or inactive are those of the source. No cut-off for these calls is given here.

Assays:
[1] = Inhibition of Staphylococcus aureus pyruvate carboxylase expressed in Escherichia coli BL21(DE3) assessed as FVB-OAA adduct formation using pyruvate as substrate by Fast violet B assay
[2] = species: Homo sapiens; assay: Inhibition of MDH (unknown origin) at 200 uM using oxaloacetate as substrate by spectrophotometric analysis
[3] = species: Homo sapiens; assay: Inhibition of MDH (unknown origin) at 1 mM using oxaloacetate as substrate by spectrophotometric analysis
[4] = system: Staphylococcus aureus; assay: Non-competitive inhibition of Staphylococcus aureus pyruvate carboxylase expressed in Escherichia coli BL21(DE3) treated with ATP as substrate prior to HCO3-, ATP and NADH addition by Michelis-Menten based double-reciprocal plot analysis
[5] = Inhibition of full length Staphylococcus aureus pyruvate carboxylase expressed in Escherichia coli BL21(DE3) assessed as formation of oxaloacetic acid using pyruvate, HCO3-, ATP and NADH as substrate by malate dehydrogenase coupled enzyme assay
[6] = system: Staphylococcus aureus; assay: (§1) Competitive inhibition of Staphylococcus aureus pyruvate carboxylase expressed in Escherichia coli BL21(DE3) treated with pyruvate as substrate prior to HCO3-, ATP and NADH addition by Michelis-Menten based double-reciprocal plot analysis
[7] = molecular target: Carbonic anhydrase 2 (Homo sapiens) (UniProt P00918); assay: Inhibition of human carbonic anhydrase 2 at 200 uM treated with enzyme for 10 mins prior to substrate addition using p-nitrophenyl acetate as substrate measured for 20 mins
[8] = molecular target: L-lactate dehydrogenase (Homo sapiens) (UniProt V9HWB9); assay: Inhibition of lactate dehydrogenase (unknown origin) at 2 mM using pyruvate as substrate in presence of NADH
[9] = molecular target: L-lactate dehydrogenase (Homo sapiens) (UniProt V9HWB9); assay: Substrate activity at lactate dehydrogenase (unknown origin) at 2 mM in presence of NADH
[10] = Mixed-type of inhibition of Staphylococcus aureus pyruvate carboxylase expressed in Escherichia coli BL21(DE3) treated with ATP as substrate prior to HCO3-, ATP and NADH addition by Michelis-Menten based double-reciprocal plot analysis
[11] = molecular target: 72 kDa type IV collagenase (Homo sapiens) (UniProt P08253); assay: Inhibition of human matrix metalloprotease 2 at 50 uM treated with enzyme for 30 mins prior to substrate addition using omniMMP fluorogenic substrate measured for 30 mins by fluorescence based assay
72 kDa type IV collagenase (Homo sapiens), sequence (P08253 110-660 limits assumed): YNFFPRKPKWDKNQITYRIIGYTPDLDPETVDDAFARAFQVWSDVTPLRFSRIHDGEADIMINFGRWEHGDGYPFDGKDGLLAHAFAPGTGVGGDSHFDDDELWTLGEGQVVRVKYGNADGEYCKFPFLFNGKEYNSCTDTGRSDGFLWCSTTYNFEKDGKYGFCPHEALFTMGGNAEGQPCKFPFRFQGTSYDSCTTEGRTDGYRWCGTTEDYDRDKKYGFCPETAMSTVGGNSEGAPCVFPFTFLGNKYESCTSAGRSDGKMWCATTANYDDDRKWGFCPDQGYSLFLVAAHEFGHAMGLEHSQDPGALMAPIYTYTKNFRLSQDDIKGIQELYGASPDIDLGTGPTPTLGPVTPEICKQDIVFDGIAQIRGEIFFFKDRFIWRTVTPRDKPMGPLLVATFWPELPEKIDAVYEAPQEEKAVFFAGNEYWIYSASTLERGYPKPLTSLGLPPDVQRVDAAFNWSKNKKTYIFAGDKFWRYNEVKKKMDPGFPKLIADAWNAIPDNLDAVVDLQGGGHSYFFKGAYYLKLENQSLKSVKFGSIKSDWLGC

[12] = as §1
[13] = molecular target: Carbonic anhydrase 2 (Homo sapiens) (UniProt P00918); assay: Increase in human carbonic anhydrase 2 activity at 200 uM treated with enzyme for 10 mins prior to substrate addition using p-nitrophenyl acetate as substrate measured for 20 mins

Structure (SMILES) | IC50 [1] | inhibition [3] | IC50 [5] | further results
C=CCCC(=O)C(=O)O | > 2000 µM |  |  | 
Cc1ccc(/C=C(\O)C(=O)O)cc1 | 210 µM | 10% | 140 µM | inhibition [2]: -3%; inhibition [4]: Active; inhibition [6]: Active
O=C(O)/C(O)=C/c1ccc2ccccc2n1 | 4.3 µM | 4% | 3.2 µM | inhibition [7]: inactive; inhibition [8]: inactive; Activity [9]: inactive; Ki [10]: 5.2 to 7.1 µM; inhibition [11]: inactive; Ki [12]: 0.74 µM
O=C(O)/C(O)=C/c1ccccc1 | 240 µM | 78% | 130 µM | inhibition [2]: 0%
O=C(O)C(=O)CC1CCCCC1 | > 1000 µM |  |  | 
O=C(O)C(=O)Cc1ccccc1Br | > 1000 µM |  | > 1000 µM | 
O=C(O)/C(O)=C/c1ccc(-c2ccsc2)cc1 | 48 µM |  |  | inhibition [11]: Active
O=C(O)C(=O)O |  |  |  | inhibition [4]: Active; inhibition [6]: Active
O=C(O)/C(O)=C/c1ccc(Cl)cc1 | 280 µM | 12% | 220 µM | inhibition [2]: 2%
O=C(O)/C(O)=C/c1ccc([N+](=O)[O-])cc1 | > 1000 µM |  | > 1000 µM | 
COc1ccc(/C=C(\O)C(=O)O)cc1 | 170 µM |  | 56 µM | 
O=C(O)C(=O)c1ccccc1 [BENZOYL FORMIC ACID] | > 3000 µM |  |  | 
O=C(O)/C=C/c1cccc(/C=C(\O)C(=O)O)c1 | 118 µM |  |  | 
O=C(O)/C(O)=C/c1ccc(C(F)(F)F)cc1 | 130 µM |  | 96 µM | 
O=C(O)C(=O)CCc1ccccc1 | > 2000 µM |  |  | 
O=C(O)C(=O)Cc1ccccc1[N+](=O)[O-] | > 2000 µM |  | > 2000 µM | 
O=C(O)/C(O)=C/c1ccc(/C=C(\O)C(=O)O)cc1 | 3 µM |  | 11 µM | inhibition [11]: Active; Activity [13]: Active
O=C(O)/C(O)=C/c1ccc(O)cc1 | 67 µM | 9% | 22 µM | Activity [9]: Active
O=C(O)/C=C/c1ccc(/C=C(\O)C(=O)O)cc1 | 58.6 µM |  |  | inhibition [11]: Active; Activity [13]: Active
O=C(O)C(O)Cc1ccccc1 (centres undefined) | > 3000 µM |  |  | 
O=C(O)/C(O)=C/c1ccc(Br)cc1 | 200 µM | 9% | 81 µM | inhibition [2]: 0%
Cc1ccc(/C=C(\O)C(=O)O)cc1C | 98 µM |  | 38 µM | inhibition [2]: 3%
Cc1cccc(/C=C(\O)C(=O)O)c1 | 360 µM | 74% | 23 µM | inhibition [2]: 13%
O=C(O)/C(O)=C/c1ccc(F)cc1 | 100 µM | 78% | 30 µM | inhibition [2]: 23%
